Earlier results in patent US9376364B2, “Acid/salt separation” (PURAC BIOCHEM B.V., priority 2011, dated 2016).

Conditions: at 20 Celsius

In the case of `[Cl-].[Cl-].[Mg+2]` [MgCl2, magnesium chloride], the “saturation point of MgCl2 in water” value is given as 55 g/100 g water.
